Results from US6949352B2, “Serine-threonine phosphatase protein of a parasitic organism of the Apicomplexa phylum, applications in therapeutics” (Centre National de la Recherche Scientifique (CNRS), priority 2001, dated 2005).

B1: Thioredoxin-Hispatch Tg PP2C (protein)
chain: MKSSAEIRRTMDVPPTIHVPLPPTSYPAFDAAIFTDIGGRKHQEDRFTLCPQLVPGRDDCAFFGVFDGTVGDFASENVKDLVVPQLISSPAWQEVTEMLRSDVPATEVDEKLPQLLDQAVDDMYKNADNELVKMCEQLNKDYASSTSVTAVLAKGFVAVGHLGDSRIAMGVETPNGLNCEFLTVDHKPDMPHEKLRIMRNGGSVEYLHNHNNKPFIRGGDFSFRKSRGEQPMQLQYSRALGGKDLKMYGLSNQPDVRVVRVTPQHRVMILATDGLWDVMFAAQAVEIAMQARQEGRNPAQALVEMTLAEQQSRNQSADNITAMTVFFKKTD

Legend:
[1] = system: parasite kinase activity which phosphorylates Toxofilin; test: Kinase reaction on rToxofilin with tachyzoïte cytosolic fraction, with pharmacological inhibitors; type: biochemical, Toxoplasma gondii; conditions: inhibitors added 15 min before starting the kinase reaction: heparin 20 μg per ml, GTP 200 μM, DRB 100 μM, [γ32P] ATP, 30° C.
Procedure: Kinase reaction: 2 μg of immobilized rToxofilin on protein G-dynabeads were washed in kinase buffer before to be incubated with a tachyzoïte cytosolic fraction prepared in kinase buffer ([…]) and precleared on protein G-dynabeads. The reaction was started by adding 100 μM of Na2 ATP and 10 μCi of [γ^32P] ATP (3000 Ci/mmol, NEN life science product, Inc) (15 min, 30° C.). Unbound materials and unincorporated [γ^32P] ATP were washed out with 200 volumes of kinase buffer containing with TX-100 (0.5% vol/vol) followed by 100 volumes of kinase buffer. Toxofilin and bound proteins were eluted in SDS-PAGE sample buffer prior to electrophoresis and radioactivity scan (phosphoimager, Molecular Dynamics). Toxofilin phosphorylation was quantified using NIH Image Quant software.
To characterize the kinase activity responsible for Toxofilin phosphorylation, three types of experiments were carried out:
1) Pharmacological inhibitors such as heparin (20 μg per ml, Sigma), GTP (200 μM, Sigma), 5,6-dichloro-1-B-D-ribofuranosylbenzimidazole (100 μM, Calbiochem) or staurosporine (1 μM, Calbiochem) were added 15 min before starting the kinase reaction.

[2] = system: recombinant Toxofilin (r-Toxofilin) without GST
[3] = biological target: recombinant Toxofilin (r-Toxofilin) without GST; remark: listed apart in the source

Molecule	inhibition of the parasite kinase activity which phosphorylates Toxofilin [1]	other results
OC[C@H]1O[C@@H](n2cnc3cc(Cl)c(Cl)cc32)[C@H](O)[C@@H]1O [DRB, 5,6-dichloro-1-B-D-ribofuranosylbenzimidazole]	inhibited	–
Nc1nc2c(ncn2[C@@H]2O[C@H](COP(=O)(O)OP(=O)(O)OP(=O)(O)O)[C@@H](O)[C@H]2O)c(=O)[nH]1 [GTP]	inhibited	–
Human casein kinase II	–	phosphorylation of Toxofilin [2]: Human casein kinase II works well at phosphorylating Toxofilin
heparin [soluble heparin]	inhibited	–
B1	–	in vitro phosphatase assay on 32P-phosphorylated Toxofilin [3]: Toxofilin is a major substrate for type 2C phosphatase
